Assay [1] has as its target T1, DNA repair and recombination protein RAD54-like (Homo sapiens, UniProt Q92698).
T1 sequence (Q92698 whole entry): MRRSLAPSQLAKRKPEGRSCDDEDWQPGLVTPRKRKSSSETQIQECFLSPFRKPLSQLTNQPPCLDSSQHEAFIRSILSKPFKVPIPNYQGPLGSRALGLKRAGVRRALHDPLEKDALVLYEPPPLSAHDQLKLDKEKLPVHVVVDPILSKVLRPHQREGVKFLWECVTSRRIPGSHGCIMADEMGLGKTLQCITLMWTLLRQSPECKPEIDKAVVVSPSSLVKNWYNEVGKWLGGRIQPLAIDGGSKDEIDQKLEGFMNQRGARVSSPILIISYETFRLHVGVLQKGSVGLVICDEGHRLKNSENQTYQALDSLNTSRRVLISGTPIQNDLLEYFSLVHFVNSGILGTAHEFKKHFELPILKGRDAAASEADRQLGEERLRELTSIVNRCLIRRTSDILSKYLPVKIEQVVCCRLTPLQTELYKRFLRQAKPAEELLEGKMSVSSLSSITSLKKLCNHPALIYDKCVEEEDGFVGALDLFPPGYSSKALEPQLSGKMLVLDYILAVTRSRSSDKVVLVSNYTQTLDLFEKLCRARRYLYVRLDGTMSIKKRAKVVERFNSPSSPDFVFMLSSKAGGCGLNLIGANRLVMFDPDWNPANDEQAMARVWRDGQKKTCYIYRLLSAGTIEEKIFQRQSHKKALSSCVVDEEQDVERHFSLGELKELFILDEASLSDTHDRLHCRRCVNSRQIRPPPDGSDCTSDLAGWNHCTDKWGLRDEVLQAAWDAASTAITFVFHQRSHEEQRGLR
Put plainly: inhibitors of human RAD54 branch migration, confirmation, biochemical, fluorescence, cherry-picked samples, dose series (AID 651657). Format: functional.

Assay [2] addresses T2, DNA repair protein RAD52 homolog (Homo sapiens, UniProt P43351).
T2 sequence (P43351 whole entry): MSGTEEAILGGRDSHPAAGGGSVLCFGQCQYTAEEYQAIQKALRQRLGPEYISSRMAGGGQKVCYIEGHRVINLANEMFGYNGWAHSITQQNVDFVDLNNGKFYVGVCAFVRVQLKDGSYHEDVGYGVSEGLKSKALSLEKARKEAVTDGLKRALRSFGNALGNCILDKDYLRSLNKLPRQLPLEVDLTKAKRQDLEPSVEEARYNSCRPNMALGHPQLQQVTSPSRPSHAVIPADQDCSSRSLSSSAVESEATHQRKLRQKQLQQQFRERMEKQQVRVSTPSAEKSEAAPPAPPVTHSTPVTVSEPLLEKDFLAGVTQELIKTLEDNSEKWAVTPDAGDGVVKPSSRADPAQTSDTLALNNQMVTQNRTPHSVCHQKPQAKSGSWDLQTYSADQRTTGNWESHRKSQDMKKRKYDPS
Format: functional, biochemical.

The target of assay [3] is T3, Microphthalmia-associated transcription factor (Homo sapiens, UniProt O75030).
T3 sequence (O75030 whole entry): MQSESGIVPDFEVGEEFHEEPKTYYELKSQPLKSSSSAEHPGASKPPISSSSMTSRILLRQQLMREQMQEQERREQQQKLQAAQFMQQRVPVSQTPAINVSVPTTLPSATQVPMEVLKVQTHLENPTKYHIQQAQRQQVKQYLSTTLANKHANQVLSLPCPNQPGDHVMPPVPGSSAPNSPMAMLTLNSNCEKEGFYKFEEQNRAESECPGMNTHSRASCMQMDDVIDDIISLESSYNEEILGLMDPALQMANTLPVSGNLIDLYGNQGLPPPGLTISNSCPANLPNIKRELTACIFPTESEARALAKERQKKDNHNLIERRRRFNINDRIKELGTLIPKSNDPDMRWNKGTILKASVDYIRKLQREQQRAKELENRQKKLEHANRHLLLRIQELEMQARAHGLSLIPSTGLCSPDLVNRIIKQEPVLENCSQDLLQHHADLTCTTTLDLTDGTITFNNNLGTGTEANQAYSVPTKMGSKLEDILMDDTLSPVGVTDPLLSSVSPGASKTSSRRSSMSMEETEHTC
Description: TRPM1 promoter luciferase signal decrease, dose response, MITF inhibitor project, cell-based, SK-MEL-5, cherry-picked, set 3 (AID 493073).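 Note: SK-MEL-5 melanoma cells with luciferase driven by the MITF target TRPM1 promoter.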 Format: functional.

The target in a further assay is Nonstructural protein 1 (Influenza A virus, UniProt Q194T2). Format: functional, Influenza A virus (A/California/07/2009(H1N1)).
Chain of Nonstructural protein 1 (Q194T2 whole entry): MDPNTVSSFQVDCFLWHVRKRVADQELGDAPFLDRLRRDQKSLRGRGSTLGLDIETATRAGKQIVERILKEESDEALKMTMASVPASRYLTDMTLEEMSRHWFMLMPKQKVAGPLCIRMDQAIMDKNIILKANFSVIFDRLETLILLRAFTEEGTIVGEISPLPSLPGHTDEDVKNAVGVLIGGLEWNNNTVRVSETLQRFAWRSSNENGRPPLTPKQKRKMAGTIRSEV
Assay [4] addresses T4, Apoptotic protease-activating factor 1 (Homo sapiens, UniProt O14727).
T4 sequence (O14727 whole entry): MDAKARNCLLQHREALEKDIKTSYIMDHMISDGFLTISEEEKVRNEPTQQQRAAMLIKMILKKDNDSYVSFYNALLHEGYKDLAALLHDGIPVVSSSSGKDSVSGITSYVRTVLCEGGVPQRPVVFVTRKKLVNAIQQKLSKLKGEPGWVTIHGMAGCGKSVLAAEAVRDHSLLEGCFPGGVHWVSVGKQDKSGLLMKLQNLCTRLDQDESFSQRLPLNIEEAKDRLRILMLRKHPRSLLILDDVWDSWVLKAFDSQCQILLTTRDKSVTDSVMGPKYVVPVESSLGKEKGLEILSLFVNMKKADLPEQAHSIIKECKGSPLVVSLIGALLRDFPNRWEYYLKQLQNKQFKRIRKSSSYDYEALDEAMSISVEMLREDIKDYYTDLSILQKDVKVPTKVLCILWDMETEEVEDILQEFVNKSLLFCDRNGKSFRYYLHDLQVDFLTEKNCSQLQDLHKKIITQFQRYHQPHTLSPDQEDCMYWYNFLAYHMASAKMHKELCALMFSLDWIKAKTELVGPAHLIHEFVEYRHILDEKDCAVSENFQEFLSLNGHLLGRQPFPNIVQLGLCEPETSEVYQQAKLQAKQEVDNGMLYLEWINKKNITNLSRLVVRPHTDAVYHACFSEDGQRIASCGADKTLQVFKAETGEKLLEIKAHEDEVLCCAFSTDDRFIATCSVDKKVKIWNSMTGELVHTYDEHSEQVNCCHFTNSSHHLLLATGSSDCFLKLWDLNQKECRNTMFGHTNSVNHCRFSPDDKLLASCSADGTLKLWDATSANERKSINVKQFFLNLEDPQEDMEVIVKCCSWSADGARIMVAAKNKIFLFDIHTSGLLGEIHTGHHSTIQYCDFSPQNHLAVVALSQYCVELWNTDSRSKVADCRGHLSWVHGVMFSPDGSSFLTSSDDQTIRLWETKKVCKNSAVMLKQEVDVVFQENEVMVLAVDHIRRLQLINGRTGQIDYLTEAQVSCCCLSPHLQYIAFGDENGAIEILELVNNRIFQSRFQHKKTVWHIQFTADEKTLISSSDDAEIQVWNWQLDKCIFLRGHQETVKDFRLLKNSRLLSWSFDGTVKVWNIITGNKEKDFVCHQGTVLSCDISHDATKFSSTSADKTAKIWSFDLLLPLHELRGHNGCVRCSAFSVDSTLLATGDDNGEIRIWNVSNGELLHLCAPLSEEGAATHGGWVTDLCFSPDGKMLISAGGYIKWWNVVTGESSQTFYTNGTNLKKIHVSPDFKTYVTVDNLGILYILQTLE
Format: functional.

Another assay relates to INS1. Put plainly: beta cell apoptosis inhibitors, cytokine rescue, dose response, luminescence, retest (AID 449756).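 Note: cell death triggered by IL-1 beta plus TNF-alpha plus IFN-gamma mixture; protective hits raise ATP signal compared with cytokine alone wells.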 Format: functional, cell-based. To be noted: Rattus norvegicus.
A short description of assay [5]: Luminescence Cell-Based Dose Retest to Confirm Inhibitors of Cancer Stem Cells. [Related pubchem assays (depositor defined):AID2717, AID2721]. Format: functional. To be noted: Homo sapiens.
Assay [6] deals with T5, Hepatocyte nuclear factor 4-alpha (Homo sapiens, UniProt P41235).
T5 sequence (P41235 whole entry): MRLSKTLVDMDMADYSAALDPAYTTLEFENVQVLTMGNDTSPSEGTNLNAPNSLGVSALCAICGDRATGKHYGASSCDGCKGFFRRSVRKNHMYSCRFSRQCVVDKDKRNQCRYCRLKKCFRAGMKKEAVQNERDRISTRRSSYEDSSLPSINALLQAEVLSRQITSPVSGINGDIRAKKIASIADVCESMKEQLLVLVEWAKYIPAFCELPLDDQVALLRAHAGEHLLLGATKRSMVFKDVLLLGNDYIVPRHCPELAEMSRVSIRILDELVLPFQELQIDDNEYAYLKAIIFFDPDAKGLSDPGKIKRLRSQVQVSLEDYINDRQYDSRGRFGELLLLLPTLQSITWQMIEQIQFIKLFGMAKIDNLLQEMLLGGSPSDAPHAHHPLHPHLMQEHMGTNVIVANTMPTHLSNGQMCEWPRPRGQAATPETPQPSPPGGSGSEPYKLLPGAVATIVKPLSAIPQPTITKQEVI
Format: functional, cell-based.

Assay [7] in a line: cells. Format: functional, cell-based.
The nature of assay [8]: AlphaScreen signal interference compounds, dose response, artefact control for ARNT-TACC3 interaction inhibitor project, biochemical, luminescence, cherry-pick (AID 651705).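 Note: AlphaScreen bead proximity signal that flags compounds interfering with the detection technology; potency reflects signal decrease which marks the compound as an assay artifact.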 The format is functional.
The next assay deals with H9c2. Put plainly: cells. Format: functional, cell-based. To be noted: Rattus norvegicus, H9c2, Myocardium.
Assay [9] can be described thus: cells. The format is functional, cell-based. The source holds these as a separate data set.
In assay [10] the target is T6, Low molecular weight phosphotyrosine protein phosphatase (Homo sapiens, UniProt P24666).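 Note: Dose-response confirmation assay measuring inhibition of LMPTP enzyme activity by fluorescence intensity read-out.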
T6 sequence (P24666 whole entry): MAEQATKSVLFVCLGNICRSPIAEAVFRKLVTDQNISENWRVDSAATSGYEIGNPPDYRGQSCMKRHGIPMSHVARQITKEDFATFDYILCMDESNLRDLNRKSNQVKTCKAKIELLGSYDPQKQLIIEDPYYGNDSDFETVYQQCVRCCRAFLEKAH
Format: functional. Particulars: read-out: IC50_Mean.

The next assay deals with Streptococcus. Put plainly: Group A Streptococcus viability loss, dose response, counter-screen for streptokinase expression inhibitor project, luminescence, BacTiterGlo (AID 1915).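 Note: potency for reduction of bacterial viability or growth.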 Format: functional, organism-based. On the technique in general: A counterscreen serves to expose hits that act by an unwanted route or on another target.
The test system of assay [11] is Streptococcus sp. 'group A'. Put plainly: growth inhibition of control SK(-) GAS strain, dose response, counter-screen for streptokinase expression inhibitor project, luminescence, kanamycin, BacTiterGlo, confirmation (AID 1900). The format is functional, organism-based.
Assay [12] concerns the target T7, Rac GTPase-activating protein 1 (Homo sapiens, UniProt Q9H0H5).
T7 sequence (Q9H0H5 whole entry): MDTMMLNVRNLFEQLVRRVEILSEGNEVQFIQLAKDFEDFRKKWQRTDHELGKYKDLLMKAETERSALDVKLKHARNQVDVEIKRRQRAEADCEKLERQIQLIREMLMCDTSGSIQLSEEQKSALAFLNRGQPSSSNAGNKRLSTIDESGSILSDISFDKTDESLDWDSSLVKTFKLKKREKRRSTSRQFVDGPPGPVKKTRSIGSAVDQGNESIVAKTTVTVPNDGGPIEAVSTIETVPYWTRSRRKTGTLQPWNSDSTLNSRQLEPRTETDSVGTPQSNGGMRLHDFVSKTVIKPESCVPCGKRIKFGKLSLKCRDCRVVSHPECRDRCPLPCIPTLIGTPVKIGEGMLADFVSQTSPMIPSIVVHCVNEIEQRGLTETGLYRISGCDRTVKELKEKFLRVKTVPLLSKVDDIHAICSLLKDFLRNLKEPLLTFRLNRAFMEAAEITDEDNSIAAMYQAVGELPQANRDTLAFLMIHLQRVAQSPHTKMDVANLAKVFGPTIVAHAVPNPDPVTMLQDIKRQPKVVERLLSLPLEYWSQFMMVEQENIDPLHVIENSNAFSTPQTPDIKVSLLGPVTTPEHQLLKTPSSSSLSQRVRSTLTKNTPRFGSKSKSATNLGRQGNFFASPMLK
Description: MgcRacGAP GTPase-activating activity inhibitors, confirmation, biochemical, ADP Hunter fluorescence, primary and confirmatory (AID 624330). Format: functional.

Structures are written as SMILES. Activity calls are given as the source filed them.

Broadly, the AC50 is the midpoint of the concentration-response curve, whichever way the signal moves. Consider `CCN1CCN(c2ccc(Nc3ccnc4ccccc34)cc2)CC1`, for which the results for the AC50 in assay [1], in assay [2] and in assay [3] were 12.2 µM (active), 3.19 µM (active) and 12.3 µM (active), respectively.
On to `CC(C)n1cnc2c(NCc3ccccc3)cc(N[C@H](C)CO)cc21`, for which the IC50 is 61.9 µM (active) on Nonstructural protein 1 and 1.22 µM (active) in assay [4]. The AC50 in the assay on INS1 is 1.52 µM (active); in [5], 6.67 µM (active).
Consider `CCOC(=O)c1cnn(-c2c(Cc3ccccc3)c(C)nc3c(-c4ccccc4)c(C)nn23)c1N`, for which the IC50 in assay [4] is 4 µM (active).
Take `NC(=O)C(C(=O)/C=C/c1ccc(Cl)cc1)=C1SCCS1`: the IC50 in assay [6] was 12.1 µM (inactive).
As to `CCOC(=O)c1c(CN2CCCCC2)n(C)c2cc(Br)c(OC)cc12`, the AC50 in assay [1] was 36.3 µM (active).
One may read the EC50 as the concentration at which the effect is half-maximal. Regarding `CCc1ccc(NC(=O)CSc2ccc(-c3ccccn3)nn2)cc1`, the EC50 in “cells [7]” is 160 µM (active); in “cells [9]”, > 350 µM (not active). Further, the AC50 is 87 µM (active) in assay [8] and 9.24 µM (active) in the assay on INS1. Also, the IC50 with H9c2 was > 79 µM (inactive).
In the case of `O=C(CSc1nnc(-c2ccco2)o1)c1ccc[nH]1`, the IC50 in assay [10] was 38.1 µM (inactive).
On to `CCn1cc(C(=O)O)c(=O)c2cc(F)c(N3CCN(S(=O)(=O)c4ccc5c(c4)OCCO5)CC3)cc21`, for which the EC50 was 5.81 µM (active) in the assay on Streptococcus and 2.84 µM (active) in assay [11]. Moreover, the IC50 in assay [10] is 5.48 µM (active).
For the compound `Cc1cccn2c(=O)c3cc(C(=O)NCc4ccccc4)c(=N)n(CCCN4CCOCC4)c3nc12`, the AC50 in assay [1] is 15.3 µM (active).
As to `CCCCCNC(=O)C(c1cc2ccccc2o1)n1c(=O)c(-c2ccco2)nc2ccccc21` (centres undefined), the IC50 in [6] was 2 µM (active).
`Cc1cccc(NC(=O)CCC(=O)N/N=C/c2ccc(O)cc2O)c1`: the AC50 in assay [8] was 118 µM (active); in assay [5], 9.74 µM (active). For the same compound, in [12], the IC50 was 62.8 µM (active).

These data come from ChEMBL document CHEMBL1201862, “PubChem BioAssay data set” (2004).
